Test results taken from patent US20220119511A1, “COMPOSITIONS AND METHODS FOR TREATMENT OF DIABETES, OBESITY, HYPER-CHOLESTEROLEMIA, AND ATHEROSCLEROSIS BY INHIBITION OF SAM68” (The UAB Research Foundation, priority 2020, published 2022).
Residues, ends and D or L forms follow the SMILES beside them. *: point of attachment. Cbz = O=C(OCc1ccccc1)*

T1: CRTC2 (CREB-regulated transcriptional coactivator 2), endogenous, in WT mouse primary hepatocytes (mouse, UniProt Q3U182 2-692)
T1 construct: Endogenous protein immunoprecipitated with the CRTC2 antibody (sc-271912); also called endogenous CRTC2
T1 sequence (looked up): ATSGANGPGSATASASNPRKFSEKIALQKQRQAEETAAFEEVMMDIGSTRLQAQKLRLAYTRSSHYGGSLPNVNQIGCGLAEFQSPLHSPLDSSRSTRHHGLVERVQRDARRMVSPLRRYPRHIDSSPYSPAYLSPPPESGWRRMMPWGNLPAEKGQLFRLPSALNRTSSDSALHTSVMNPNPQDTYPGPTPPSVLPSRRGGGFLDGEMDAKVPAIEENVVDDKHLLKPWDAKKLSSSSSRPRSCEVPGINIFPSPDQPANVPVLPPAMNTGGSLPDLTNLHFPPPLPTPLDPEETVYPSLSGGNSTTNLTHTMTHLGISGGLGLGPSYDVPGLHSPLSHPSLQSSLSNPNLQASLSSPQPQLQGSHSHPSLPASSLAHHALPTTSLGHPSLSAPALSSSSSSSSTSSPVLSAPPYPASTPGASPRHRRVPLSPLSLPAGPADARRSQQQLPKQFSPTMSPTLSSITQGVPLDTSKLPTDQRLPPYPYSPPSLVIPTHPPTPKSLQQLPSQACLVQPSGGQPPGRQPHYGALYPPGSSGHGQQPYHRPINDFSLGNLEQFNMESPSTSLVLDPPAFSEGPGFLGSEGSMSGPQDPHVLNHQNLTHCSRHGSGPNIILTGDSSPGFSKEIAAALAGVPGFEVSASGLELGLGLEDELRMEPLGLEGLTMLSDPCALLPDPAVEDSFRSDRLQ

B1: Sam68 (Src-associated-in-mitosis-of-68kDa), endogenous, in WT mouse primary hepatocytes (other, UniProt Q60749 1-443, looked up)
chain: MQRRDDPASRLTRSSGRSCSKDPSGAHPSVRLTPSRPSPLPHRPRGGGGGPRGGARASPATQPPPLLPPSTPGPDATVVGSAPTPLLPPSATAAVKMEPENKYLPELMAEKDSLDPSFTHAMQLLSVEIEKIQKGESKKDDEENYLDLFSHKNMKLKERVLIPVKQYPKFNFVGKILGPQGNTIKRLQEETGAKISVLGKGSMRDKAKEEELRKGGDPKYAHLNMDLHVFIEVFGPPCEAYALMAHAMEEVKKFLVPDMMDDICQEQFLELSYLNGVPEPSRGRGVSVRGRGAAPPPPPVPRGRGVGPPRGALVRGTPVRGSITRGATVTRGVPPPPTVRGAPTPRARTAGIQRIPLPPTPAPETYEDYGYDDTYAEQSYEGYEGYYSQSQGESEYYDYGHGELQDSYEAYGQDDWNGTRPSLKAPPARPVKGAYREHPYGRY
notes: Endogenous protein co-immunoprecipitated from mouse primary hepatocytes; also called KHDRBS1

How the values were obtained:
CRTC2 = CRTC2 protein levels in primary hepatocytes treated with proteasome or autophagy inhibitors (Western blot); format: cell-based, mouse; conditions: up to 16 h (MG132 20 μM, BZM 100 nM) or up to 8 h (bafilomycin 100 nM)
Protocol: FIGS. 7A-7J show Sam68 binds CRTC2 and inhibits CRTC2 ubiquitination and proteosomal degradation. In FIG. 7A, WT and Sam68^−/− mice were treated with glucagon (30 μg/kg) or PBS for 10 min; then, nuclear and cytoplasmic proteins were isolated from the liver tissue, and Sam68 protein expression was evaluated via Western blot. In FIG. 7B, CRTC2 was immunoprecipitated from WT and Sam68^−/− primary hepatocytes, and then CRTC2, Sam68, and CREB protein was detected in the precipitates via immunoblot. In FIG. 7C, 293T cells were co-transfected with plasmids coding for HA-tagged Sam68 and Flag-tagged CRTC2; 48 h later, CRTC2 was immunoprecipitated from the cells with anti-Flag, and Sam68 was detected in the precipitates by immunoblotting with anti-HA. In FIG. 7D, 293T cells were co-transfected with plasmids coding for Flag-tagged CRTC2 and HA-tagged WT Sam68 or HA-tagged mutations of Sam68 lacking the N-terminal domain (ΔN), the CK domain (ΔCK), proline motifs 3 and 4 (ΔP3-P4), or the C-terminal domain (ΔC); 48 h later, Sam68 and the Sam68 mutants were immunoprecipitated with anti-HA, and CRTC2 was detected in the precipitates by immunoblotting with anti-Flag. […] P62/SQSTM1 and LC3BI/II protein levels were also evaluated to indicate autophagic activity. […]

[1] = target: T1, CRTC2 (CREB-regulated transcriptional …); experiment: co-IP from mouse primary hepatocytes (FIG. 7B)
Protocol: In FIG. 7A, WT and Sam68^{-/-} mice were treated with glucagon (30 μg/kg) or PBS for 10 min; then, nuclear and cytoplasmic proteins were isolated from the liver tissue, and Sam68 protein expression was evaluated via Western blot. In FIG. 7B, CRTC2 was immunoprecipitated from WT and Sam68^{-/-} primary hepatocytes, and then CRTC2, Sam68, and CREB protein was detected in the precipitates via immunoblot. […] In FIG. 7E, WT and Sam68^{-/-} primary hepatocytes were treated with cycloheximide (100 μM) for 0-8 h to block new protein synthesis; then, CRTC2 protein levels were evaluated by Western blot, quantified via Image J software, normalized to β-actin levels, and reported as the proportion of the amount present at 0 h. WT and Sam68^{-/-} primary hepatocytes were treated with cycloheximide and (FIG. 7E) MG132 (20 μM), (FIG. 7F) BZM (100 nM), or (FIG. 7G) bafilomycin (100 nM) for 0-16 (MG132, BZM) or 0-8 (bafilomycin) and CRTC2 protein levels were evaluated by Western blot, quantified via Image J software, normalized to β-actin levels, and reported as the proportion of the amount present in WT cells at 0 h. P62/SQSTM1 and LC3BI/II protein levels were also evaluated to indicate autophagic activity. […]

| Molecule | CRTC2 protein levels in Sam68−/− hepatocytes during treatment (CRTC2) | binding result [1] |
| --- | --- | --- |
| CC(C)C[C@@H](C=O)NC(=O)[C@H](CC(C)C)NC(=O)[C@H](CC(C)C)NC(=O)OCc1ccccc1 [MG132] (Cbz-Leu-Leu-Leu-aldehyde) | approximately doubled | – |
| bafilomycin | unchanged | – |
| B1 | – | binds |
